Source: PubChem BioAssay AID1963861 (Molecular Pharmacology Branch, DTP, NCI, 2024)

Tested on: 885724-159-R-J1-PDC KRAS PDC multicell spheroid viability
Test: Anticancer human tumor 885724-159-R-J1-PDC patient-derived pancreatic adenocarcinoma cell line growth inhibition [KRAS2]
Conditions: for viability, T/C: stronger effect = lower value
Procedure, shortened: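 KRAS-mutant tumor cells were grown as spheroids with HUVEC endothelial cells and human MSCs as stroma. Targeted agents were tested alone and with KRAS pathway inhibitors. Doses started at or near clinical Cmax, or 10 microM, descending half-log.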

[1] = curve of first compound, second compound 0.1 µM
[2] = curve of first compound, second compound 0.316 µM
[3] = curve of first compound, second compound 1 µM
[4] = curve of first compound, second compound 3.16 µM
[5] = curve of first compound, second compound 10 µM
[6] = second compound 0.1 µM, first compound 0.0316 µM
[7] = second compound 0.1 µM, first compound 0.1 µM
[8] = second compound 0.1 µM, first compound 0.316 µM
[9] = second compound 0.1 µM, first compound 1 µM
[10] = second compound 0.1 µM, first compound 3.16 µM
[11] = second compound 0.1 µM, first compound 10 µM
[12] = second compound 0.316 µM, first compound 0.0316 µM
[13] = second compound 0.316 µM, first compound 0.1 µM
[14] = second compound 0.316 µM, first compound 0.316 µM
[15] = second compound 0.316 µM, first compound 1 µM
[16] = second compound 0.316 µM, first compound 3.16 µM
[17] = second compound 0.316 µM, first compound 10 µM
[18] = second compound 1 µM, first compound 0.0316 µM
[19] = second compound 1 µM, first compound 0.1 µM
[20] = second compound 1 µM, first compound 0.316 µM
[21] = second compound 1 µM, first compound 1 µM
[22] = second compound 1 µM, first compound 3.16 µM
[23] = second compound 1 µM, first compound 10 µM
[24] = second compound 3.16 µM, first compound 0.0316 µM
[25] = second compound 3.16 µM, first compound 0.1 µM
[26] = second compound 3.16 µM, first compound 0.316 µM
[27] = second compound 3.16 µM, first compound 1 µM
[28] = second compound 3.16 µM, first compound 3.16 µM
[29] = second compound 3.16 µM, first compound 10 µM
[30] = second compound 10 µM, first compound 0.0316 µM
[31] = second compound 10 µM, first compound 0.1 µM
[32] = second compound 10 µM, first compound 0.316 µM
[33] = second compound 10 µM, first compound 1 µM
[34] = second compound 10 µM, first compound 3.16 µM
[35] = second compound 10 µM, first compound 10 µM
[36] = second compound 0.1 µM, first compound 0.01 µM
[37] = second compound 0.316 µM, first compound 0.01 µM
[38] = second compound 1 µM, first compound 0.01 µM
[39] = second compound 3.16 µM, first compound 0.01 µM
[40] = second compound 10 µM, first compound 0.01 µM
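Note: spheroids exposed to agents for 7 days before readout.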

C=CC(=O)N1CCN(c2nc(=O)n(-c3c(C)ccnc3C(C)C)c3nc(-c4c(O)cccc4F)c(F)cc23)C(C)C1 (configuration not stated)
viability, T/C (compound 0.1 µM): 107% [middle of 15 runs]
viability, T/C (compound 0.316 µM): 107% [middle of 15 runs]
viability, T/C (compound 1 µM): 106% [middle of 15 runs]
IC50 (compound alone, run of 08/19/2021): > 10000 nM
IC50 (compound alone, run of 08/26/2021): > 10000 nM
IC50 (compound alone, run of 09/02/2021): > 10000 nM

CC(C)n1nc(-c2ccc3oc(N)nc3c2)c2c(N)ncnc21
viability, T/C (compound 0.000316 µM): 95.6% [middle of 5 runs]
viability, T/C (compound 0.001 µM): 74.4% [middle of 5 runs]
viability, T/C (compound 0.00316 µM): 65.9% [middle of 5 runs]
viability, T/C (compound 0.01 µM): 61.9% [middle of 5 runs]
viability, T/C (compound 0.0316 µM): 51% [middle of 5 runs]
viability, T/C (compound 0.1 µM): 46.5% [middle of 5 runs]

O=C(c1cc(Cc2n[nH]c(=O)c3ccccc23)ccc1F)N1CCN(C(=O)C2CC2)CC1 + COc1cc2nc(C)nc(NC(C)c3cc(N)cc(C(F)(F)F)c3)c2cc1OC1CCOC1
IC50 [1]: > 10000 nM
IC50 [2]: > 10000 nM
IC50 [3]: > 10000 nM
IC50 [4]: > 10000 nM
IC50 [5]: > 10000 nM
viability, T/C [6]: 129%
viability, T/C [7]: 122%
viability, T/C [8]: 110%
viability, T/C [9]: 113%
viability, T/C [10]: 98.2%
viability, T/C [11]: 95%
viability, T/C [12]: 113%
viability, T/C [13]: 106%
viability, T/C [14]: 104%
viability, T/C [15]: 103%
viability, T/C [16]: 98%
viability, T/C [17]: 91.5%
viability, T/C [18]: 129%
viability, T/C [19]: 134%
viability, T/C [20]: 132%
viability, T/C [21]: 115%
viability, T/C [22]: 111%
viability, T/C [23]: 91.4%
viability, T/C [24]: 91.4%
viability, T/C [25]: 102%
viability, T/C [26]: 94.8%
viability, T/C [27]: 95.2%
viability, T/C [28]: 91.9%
viability, T/C [29]: 81.7%
viability, T/C [30]: 97%
viability, T/C [31]: 102%
viability, T/C [32]: 98.4%
viability, T/C [33]: 92.5%
viability, T/C [34]: 107%
viability, T/C [35]: 93.3%

CC(=O)Nc1cccc(-n2c(=O)n(C3CC3)c(=O)c3c(Nc4ccc(I)cc4F)n(C)c(=O)c(C)c32)c1 + CNCc1ccccc1-c1csc(C(C)Nc2nc(C)nc3cc(OC)c(OC)cc23)c1
IC50 [1]: 0.893 nM
IC50 [2]: 0.824 nM
IC50 [3]: 0.519 nM
IC50 [4]: < 0.1 nM
IC50 [5]: < 0.1 nM
viability, T/C (second compound 0.1 µM, first compound 0.0001 µM): 90.3%
viability, T/C (second compound 0.1 µM, first compound 0.000316 µM): 71.2%
viability, T/C (second compound 0.1 µM, first compound 0.001 µM): 43.9%
viability, T/C (second compound 0.1 µM, first compound 0.00316 µM): 34.7%
viability, T/C [36]: 24.7%
viability, T/C [6]: 16.2%
viability, T/C (second compound 0.316 µM, first compound 0.0001 µM): 90.4%
viability, T/C (second compound 0.316 µM, first compound 0.000316 µM): 70.2%
viability, T/C (second compound 0.316 µM, first compound 0.001 µM): 43.9%
viability, T/C (second compound 0.316 µM, first compound 0.00316 µM): 30.3%
viability, T/C [37]: 20.5%
viability, T/C [12]: 12.9%
viability, T/C (second compound 1 µM, first compound 0.0001 µM): 90.8%
viability, T/C (second compound 1 µM, first compound 0.000316 µM): 63.7%
viability, T/C (second compound 1 µM, first compound 0.001 µM): 30.5%
viability, T/C (second compound 1 µM, first compound 0.00316 µM): 20.6%
viability, T/C [38]: 6.76%
viability, T/C [18]: 1.59%
viability, T/C (second compound 3.16 µM, first compound 0.0001 µM): 1.26%
viability, T/C (second compound 3.16 µM, first compound 0.000316 µM): 0.83%
viability, T/C (second compound 3.16 µM, first compound 0.001 µM): 0.53%
viability, T/C (second compound 3.16 µM, first compound 0.00316 µM): 0.68%
viability, T/C [39]: 0.79%
viability, T/C [24]: 1.69%
viability, T/C (second compound 10 µM, first compound 0.0001 µM): 0.21%
viability, T/C (second compound 10 µM, first compound 0.000316 µM): 0.24%
viability, T/C (second compound 10 µM, first compound 0.001 µM): 0.25%
viability, T/C (second compound 10 µM, first compound 0.00316 µM): 0.37%
viability, T/C [40]: 0.34%
viability, T/C [30]: 0.69%

CC1COCCN1c1cc(-c2ccnn2C)c2ccnc(-c3ccn[nH]3)c2n1 (configuration not stated) + CC1OCC2(CCN(c3cnc(Sc4ccnc(N)c4Cl)c(N)n3)CC2)C1N
IC50 [1]: > 3160 nM
IC50 [2]: > 3160 nM
IC50 [3]: 852 nM
IC50 [4]: 573 nM
IC50 [5]: 236 nM
viability, T/C [36]: 91.3%
viability, T/C [6]: 87.2%
viability, T/C [7]: 67.6%
viability, T/C [8]: 60.1%
viability, T/C [9]: 53%
viability, T/C [10]: 52.1%
viability, T/C [37]: 81%
viability, T/C [12]: 75.5%
viability, T/C [13]: 61.4%
viability, T/C [14]: 60.2%
viability, T/C [15]: 54.7%
viability, T/C [16]: 49.8%
viability, T/C [38]: 80.7%
viability, T/C [18]: 69.1%
viability, T/C [19]: 63%
viability, T/C [20]: 58.4%
viability, T/C [21]: 47.9%
viability, T/C [22]: 42.7%
viability, T/C [39]: 73.5%
viability, T/C [24]: 67.2%
viability, T/C [25]: 56.9%
viability, T/C [26]: 56%
viability, T/C [27]: 45.9%
viability, T/C [28]: 42.2%
viability, T/C [40]: 65.3%
viability, T/C [30]: 59.7%
viability, T/C [31]: 53.8%
viability, T/C [32]: 49.2%
viability, T/C [33]: 43.2%
viability, T/C [34]: 41%

COc1cc(Nc2ncc3c(n2)-c2ccc(Cl)cc2C(c2c(F)cccc2OC)=NC3)ccc1C(=O)O + COc1cc2nc(C)nc(NC(C)c3cc(N)cc(C(F)(F)F)c3)c2cc1OC1CCOC1
IC50 [1]: > 10000 nM
IC50 [2]: > 10000 nM
IC50 [3]: > 10000 nM
IC50 [4]: > 10000 nM
IC50 [5]: 88.3 nM
viability, T/C [6]: 110%
viability, T/C [7]: 99.3%
viability, T/C [8]: 90.9%
viability, T/C [9]: 105%
viability, T/C [10]: 106%
viability, T/C [11]: 108%
viability, T/C [12]: 114%
viability, T/C [13]: 96.4%
viability, T/C [14]: 90.7%
viability, T/C [15]: 96.1%
viability, T/C [16]: 102%
viability, T/C [17]: 105%
viability, T/C [18]: 108%
viability, T/C [19]: 102%
viability, T/C [20]: 101%
viability, T/C [21]: 93.7%
viability, T/C [22]: 108%
viability, T/C [23]: 107%
viability, T/C [24]: 98.8%
viability, T/C [25]: 96.8%
viability, T/C [26]: 92.3%
viability, T/C [27]: 92.5%
viability, T/C [28]: 97.5%
viability, T/C [29]: 114%
viability, T/C [30]: 83.4%
viability, T/C [31]: 45.5%
viability, T/C [32]: 44%
viability, T/C [33]: 45.6%
viability, T/C [34]: 62.9%
viability, T/C [35]: 30.3%

CC1COCCN1c1cc(-c2ccnn2C)c2ccnc(-c3ccn[nH]3)c2n1 (configuration not stated) + C=CC(=O)N1CCN(c2nc(OCC3CCCN3C)nc3c2CCN(c2cccc4cccc(C)c24)C3)CC1CC#N
IC50 (curve of first compound, second compound 0.0316 µM): 1790 nM
IC50 [1]: 909 nM
IC50 [2]: 723 nM
IC50 [3]: 298 nM
IC50 [4]: 17 nM
viability, T/C (second compound 0.0316 µM, first compound 0.01 µM): 102%
viability, T/C (second compound 0.0316 µM, first compound 0.0316 µM): 77.8%
viability, T/C (second compound 0.0316 µM, first compound 0.1 µM): 64.8%
viability, T/C (second compound 0.0316 µM, first compound 0.316 µM): 58.8%
viability, T/C (second compound 0.0316 µM, first compound 1 µM): 48.8%
viability, T/C (second compound 0.0316 µM, first compound 3.16 µM): 49.3%
viability, T/C [36]: 103%
viability, T/C [6]: 83.7%
viability, T/C [7]: 65.5%
viability, T/C [8]: 54.5%
viability, T/C [9]: 45.8%
viability, T/C [10]: 51.2%
viability, T/C [37]: 95%
viability, T/C [12]: 74.6%
viability, T/C [13]: 60.8%
viability, T/C [14]: 54.6%
viability, T/C [15]: 46.4%
viability, T/C [16]: 47.8%
viability, T/C [38]: 85%
viability, T/C [18]: 76.3%
viability, T/C [19]: 59.7%
viability, T/C [20]: 51.5%
viability, T/C [21]: 41.6%
viability, T/C [22]: 42.4%
viability, T/C [39]: 53.4%
viability, T/C [24]: 46.5%
viability, T/C [25]: 37.2%
viability, T/C [26]: 33.5%
viability, T/C [27]: 25.4%
viability, T/C [28]: 23.4%
